According to the supplement of paper PMC10307832:

Legend:
Venetoclax + Dasatinib = compound: CC1(C)CCC(CN2CCN(c3ccc(C(=O)NS(=O)(=O)c4ccc(NCC5CCOCC5)c([N+](=O)[O-])c4)c(Oc4cnc5[nH]ccc5c4)c3)CC2)=C(c2ccc(Cl)cc2)C1 [Venetoclax] + Cc1nc(Nc2ncc(C(=O)Nc3c(C)cccc3Cl)s2)cc(N2CCN(CCO)CC2)n1 [Dasatinib] (partner 0.075 µM); assay: relative viability (nuclei count vs DMSO), 5 days (fraction); higher = more cells survive
Method in brief: (§1)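 A single step with final 0.05% Triton X-100, 1% formaldehyde and 1 ug/ml Hoechst fixed the cells and stained nuclei 5 days after treatment. Lung cancer cell lines in 1536-well plates had been treated by pin tool the day after seeding with one drug alone or a fixed anchor-drug dose plus five library-drug doses (not always all listed) in √10 steps, and nuclei were counted on 4× images. Relative viability is the ratio of nuclei in treated wells to nuclei in vehicle wells, taken as the median of duplicate plates.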

Venetoclax + Luminespib = compound: CC1(C)CCC(CN2CCN(c3ccc(C(=O)NS(=O)(=O)c4ccc(NCC5CCOCC5)c([N+](=O)[O-])c4)c(Oc4cnc5[nH]ccc5c4)c3)CC2)=C(c2ccc(Cl)cc2)C1 [Venetoclax] + CCNC(=O)c1noc(-c2cc(C(C)C)c(O)cc2O)c1-c1ccc(CN2CCOCC2)cc1 [Luminespib] (partner 0.01 µM); assay: as above
Method in brief: as §1

## NCI-H522
Venetoclax + Dasatinib; first compound 0.01 µM
  relative viability: 0.938
Venetoclax + Dasatinib; first compound 0.03162 µM
  relative viability: 0.951
Venetoclax + Dasatinib; first compound 0.1 µM
  relative viability: 0.805
Venetoclax + Dasatinib; first compound 0.3162 µM
  relative viability: 0.8
Venetoclax + Dasatinib; first compound 1 µM
  relative viability: 0.848
Venetoclax + Luminespib; first compound 0.01 µM
  relative viability: 1.14
Venetoclax + Luminespib; first compound 0.03162 µM
  relative viability: 1.21
Venetoclax + Luminespib; first compound 0.1 µM
  relative viability: 1.04
Venetoclax + Luminespib; first compound 1 µM
  relative viability: 1.19

## HCC-366
Venetoclax + Dasatinib; first compound 0.01 µM
  relative viability: 0.618
Venetoclax + Dasatinib; first compound 0.03162 µM
  relative viability: 0.592
Venetoclax + Dasatinib; first compound 0.1 µM
  relative viability: 0.523
Venetoclax + Dasatinib; first compound 0.3162 µM
  relative viability: 0.56
Venetoclax + Dasatinib; first compound 1 µM
  relative viability: 0.54

## A-427
Venetoclax + Dasatinib; first compound 0.01 µM
  relative viability: 0.667
Venetoclax + Dasatinib; first compound 0.03162 µM
  relative viability: 0.726
Venetoclax + Dasatinib; first compound 0.1 µM
  relative viability: 0.667
Venetoclax + Dasatinib; first compound 0.3162 µM
  relative viability: 0.687
Venetoclax + Dasatinib; first compound 1 µM
  relative viability: 0.639
Venetoclax + Luminespib; first compound 0.01 µM
  relative viability: 0.903
Venetoclax + Luminespib; first compound 0.03162 µM
  relative viability: 0.847
Venetoclax + Luminespib; first compound 0.1 µM
  relative viability: 0.889
Venetoclax + Luminespib; first compound 0.3162 µM
  relative viability: 1.07
Venetoclax + Luminespib; first compound 1 µM
  relative viability: 0.891

## NCI-H2347
Venetoclax + Dasatinib; first compound 0.01 µM
  relative viability: 0.328
Venetoclax + Dasatinib; first compound 0.03162 µM
  relative viability: 0.318
Venetoclax + Dasatinib; first compound 0.1 µM
  relative viability: 0.322
Venetoclax + Dasatinib; first compound 0.3162 µM
  relative viability: 0.309
Venetoclax + Dasatinib; first compound 1 µM
  relative viability: 0.268
Venetoclax + Luminespib; first compound 0.01 µM
  relative viability: 0.307
Venetoclax + Luminespib; first compound 0.03162 µM
  relative viability: 0.702
Venetoclax + Luminespib; first compound 0.1 µM
  relative viability: 0.405
Venetoclax + Luminespib; first compound 0.3162 µM
  relative viability: 0.283
Venetoclax + Luminespib; first compound 1 µM
  relative viability: 0.948

## NCI-H1792
Venetoclax + Dasatinib; first compound 0.01 µM
  relative viability: 0.843
Venetoclax + Dasatinib; first compound 0.03162 µM
  relative viability: 0.803
Venetoclax + Dasatinib; first compound 0.1 µM
  relative viability: 0.556
Venetoclax + Dasatinib; first compound 0.3162 µM
  relative viability: 0.759
Venetoclax + Dasatinib; first compound 1 µM
  relative viability: 0.755
Venetoclax + Luminespib; first compound 0.01 µM
  relative viability: 0.381
Venetoclax + Luminespib; first compound 0.03162 µM
  relative viability: 0.492
Venetoclax + Luminespib; first compound 0.1 µM
  relative viability: 0.329
Venetoclax + Luminespib; first compound 0.3162 µM
  relative viability: 0.374
Venetoclax + Luminespib; first compound 1 µM
  relative viability: 0.375

## LCLC-97TM1
Venetoclax + Dasatinib; first compound 0.01 µM
  relative viability: 0.856
Venetoclax + Dasatinib; first compound 0.03162 µM
  relative viability: 0.888
Venetoclax + Dasatinib; first compound 0.1 µM
  relative viability: 0.764
Venetoclax + Dasatinib; first compound 0.3162 µM
  relative viability: 0.733
Venetoclax + Dasatinib; first compound 1 µM
  relative viability: 0.802
Venetoclax + Luminespib; first compound 0.01 µM
  relative viability: 0.709
Venetoclax + Luminespib; first compound 0.03162 µM
  relative viability: 0.397
Venetoclax + Luminespib; first compound 0.1 µM
  relative viability: 0.717
Venetoclax + Luminespib; first compound 0.3162 µM
  relative viability: 0.727
Venetoclax + Luminespib; first compound 1 µM
  relative viability: 0.771

## RERF-LC-KJ
Venetoclax + Dasatinib; first compound 0.01 µM
  relative viability: 0.62
Venetoclax + Dasatinib; first compound 0.03162 µM
  relative viability: 0.84
Venetoclax + Dasatinib; first compound 0.1 µM
  relative viability: 0.784
Venetoclax + Dasatinib; first compound 0.3162 µM
  relative viability: 0.779
Venetoclax + Dasatinib; first compound 1 µM
  relative viability: 0.675
Venetoclax + Luminespib; first compound 0.01 µM
  relative viability: 1.19
Venetoclax + Luminespib; first compound 0.03162 µM
  relative viability: 1.19
Venetoclax + Luminespib; first compound 0.1 µM
  relative viability: 1.22
Venetoclax + Luminespib; first compound 0.3162 µM
  relative viability: 1.19
Venetoclax + Luminespib; first compound 1 µM
  relative viability: 1.08

## NCI-H1993
Venetoclax + Dasatinib; first compound 0.01 µM
  relative viability: 0.641
Venetoclax + Dasatinib; first compound 0.03162 µM
  relative viability: 0.546
Venetoclax + Dasatinib; first compound 0.1 µM
  relative viability: 0.493
Venetoclax + Dasatinib; first compound 0.3162 µM
  relative viability: 0.541
Venetoclax + Dasatinib; first compound 1 µM
  relative viability: 0.537
Venetoclax + Luminespib; first compound 0.01 µM
  relative viability: 0.881
Venetoclax + Luminespib; first compound 0.03162 µM
  relative viability: 0.843
Venetoclax + Luminespib; first compound 0.1 µM
  relative viability: 0.917
Venetoclax + Luminespib; first compound 0.3162 µM
  relative viability: 0.896
Venetoclax + Luminespib; first compound 1 µM
  relative viability: 0.777

## NCI-H1734
Venetoclax + Dasatinib; first compound 0.01 µM
  relative viability: 0.471
Venetoclax + Dasatinib; first compound 0.03162 µM
  relative viability: 0.415
Venetoclax + Dasatinib; first compound 0.1 µM
  relative viability: 0.417
Venetoclax + Dasatinib; first compound 0.3162 µM
  relative viability: 0.446
Venetoclax + Dasatinib; first compound 1 µM
  relative viability: 0.451
Venetoclax + Luminespib; first compound 0.01 µM
  relative viability: 0.184
Venetoclax + Luminespib; first compound 0.03162 µM
  relative viability: 0.188
Venetoclax + Luminespib; first compound 0.1 µM
  relative viability: 0.244
Venetoclax + Luminespib; first compound 0.3162 µM
  relative viability: 0.204
Venetoclax + Luminespib; first compound 1 µM
  relative viability: 0.224

## HCC-44
Venetoclax + Luminespib; first compound 0.01 µM
  relative viability: 1.05
Venetoclax + Luminespib; first compound 0.03162 µM
  relative viability: 0.946
Venetoclax + Luminespib; first compound 0.1 µM
  relative viability: 1.13
Venetoclax + Luminespib; first compound 0.3162 µM
  relative viability: 1.07
Venetoclax + Luminespib; first compound 1 µM
  relative viability: 1

## SK-MES-1
Venetoclax + Dasatinib; first compound 0.01 µM
  relative viability: 0.4
Venetoclax + Dasatinib; first compound 0.03162 µM
  relative viability: 0.383
Venetoclax + Dasatinib; first compound 0.1 µM
  relative viability: 0.329
Venetoclax + Dasatinib; first compound 0.3162 µM
  relative viability: 0.408
Venetoclax + Dasatinib; first compound 1 µM
  relative viability: 0.376
Venetoclax + Luminespib; first compound 0.01 µM
  relative viability: 0.82
Venetoclax + Luminespib; first compound 0.03162 µM
  relative viability: 0.789
Venetoclax + Luminespib; first compound 0.1 µM
  relative viability: 0.806
Venetoclax + Luminespib; first compound 0.3162 µM
  relative viability: 0.822
Venetoclax + Luminespib; first compound 1 µM
  relative viability: 0.728

## EPLC-272H
Venetoclax + Dasatinib; first compound 0.01 µM
  relative viability: 0.399
Venetoclax + Dasatinib; first compound 0.03162 µM
  relative viability: 0.379
Venetoclax + Dasatinib; first compound 0.1 µM
  relative viability: 0.352
Venetoclax + Dasatinib; first compound 0.3162 µM
  relative viability: 0.36
Venetoclax + Dasatinib; first compound 1 µM
  relative viability: 0.346
Venetoclax + Luminespib; first compound 0.01 µM
  relative viability: 0.64
Venetoclax + Luminespib; first compound 0.03162 µM
  relative viability: 0.368
Venetoclax + Luminespib; first compound 0.1 µM
  relative viability: 0.212
Venetoclax + Luminespib; first compound 0.3162 µM
  relative viability: 0.171
Venetoclax + Luminespib; first compound 1 µM
  relative viability: 0.367

## NCI-H838
Venetoclax + Dasatinib; first compound 0.01 µM
  relative viability: 0.367
Venetoclax + Dasatinib; first compound 0.03162 µM
  relative viability: 0.288
Venetoclax + Dasatinib; first compound 0.1 µM
  relative viability: 0.303
Venetoclax + Dasatinib; first compound 0.3162 µM
  relative viability: 0.312
Venetoclax + Dasatinib; first compound 1 µM
  relative viability: 0.279
Venetoclax + Luminespib; first compound 0.01 µM
  relative viability: 0.408
Venetoclax + Luminespib; first compound 0.03162 µM
  relative viability: 0.255
Venetoclax + Luminespib; first compound 0.1 µM
  relative viability: 0.24
Venetoclax + Luminespib; first compound 0.3162 µM
  relative viability: 0.378
Venetoclax + Luminespib; first compound 1 µM
  relative viability: 0.275

## SK-LU-1
Venetoclax + Dasatinib; first compound 0.01 µM
  relative viability: 0.251
Venetoclax + Dasatinib; first compound 0.03162 µM
  relative viability: 0.168
Venetoclax + Dasatinib; first compound 0.1 µM
  relative viability: 0.192
Venetoclax + Dasatinib; first compound 0.3162 µM
  relative viability: 0.191
Venetoclax + Dasatinib; first compound 1 µM
  relative viability: 0.181
Venetoclax + Luminespib; first compound 0.01 µM
  relative viability: 0.188
Venetoclax + Luminespib; first compound 0.03162 µM
  relative viability: 0.21
Venetoclax + Luminespib; first compound 0.1 µM
  relative viability: 0.197
Venetoclax + Luminespib; first compound 0.3162 µM
  relative viability: 0.198
Venetoclax + Luminespib; first compound 1 µM
  relative viability: 0.197

## NCI-H1623
Venetoclax + Dasatinib; first compound 0.01 µM
  relative viability: 0.565
Venetoclax + Dasatinib; first compound 0.03162 µM
  relative viability: 0.595
Venetoclax + Dasatinib; first compound 0.1 µM
  relative viability: 0.534
Venetoclax + Dasatinib; first compound 0.3162 µM
  relative viability: 0.515
Venetoclax + Dasatinib; first compound 1 µM
  relative viability: 0.508
Venetoclax + Luminespib; first compound 0.01 µM
  relative viability: 0.545
Venetoclax + Luminespib; first compound 0.03162 µM
  relative viability: 0.502
Venetoclax + Luminespib; first compound 0.1 µM
  relative viability: 0.566
Venetoclax + Luminespib; first compound 0.3162 µM
  relative viability: 0.6
Venetoclax + Luminespib; first compound 1 µM
  relative viability: 0.464

## LCLC-103H
Venetoclax + Dasatinib; first compound 0.01 µM
  relative viability: 0.48
Venetoclax + Dasatinib; first compound 0.03162 µM
  relative viability: 0.439
Venetoclax + Dasatinib; first compound 0.1 µM
  relative viability: 0.479
Venetoclax + Dasatinib; first compound 0.3162 µM
  relative viability: 0.463
Venetoclax + Dasatinib; first compound 1 µM
  relative viability: 0.45
Venetoclax + Luminespib; first compound 0.01 µM
  relative viability: 0.969
Venetoclax + Luminespib; first compound 0.03162 µM
  relative viability: 0.999
Venetoclax + Luminespib; first compound 0.1 µM
  relative viability: 0.905
Venetoclax + Luminespib; first compound 0.3162 µM
  relative viability: 1.02
Venetoclax + Luminespib; first compound 1 µM
  relative viability: 0.902

## CAL-12T
Venetoclax + Dasatinib; first compound 0.01 µM
  relative viability: 0.286
Venetoclax + Dasatinib; first compound 0.03162 µM
  relative viability: 0.476
Venetoclax + Dasatinib; first compound 0.1 µM
  relative viability: 0.381
Venetoclax + Dasatinib; first compound 0.3162 µM
  relative viability: 0.398
Venetoclax + Dasatinib; first compound 1 µM
  relative viability: 0.314
Venetoclax + Luminespib; first compound 0.01 µM
  relative viability: 0.353
Venetoclax + Luminespib; first compound 0.03162 µM
  relative viability: 0.254
Venetoclax + Luminespib; first compound 0.1 µM
  relative viability: 0.375
Venetoclax + Luminespib; first compound 0.3162 µM
  relative viability: 0.24
Venetoclax + Luminespib; first compound 1 µM
  relative viability: 0.412
